Values of other authors in article PMC9905294 (Biochemistry, 2023).

Molecular target: Mtb Eis (Mycobacterium tuberculosis, UniProt P9WFK7)
Conditions: previously published value; cited from earlier work

Sequence of Mtb Eis (P9WFK7 whole entry): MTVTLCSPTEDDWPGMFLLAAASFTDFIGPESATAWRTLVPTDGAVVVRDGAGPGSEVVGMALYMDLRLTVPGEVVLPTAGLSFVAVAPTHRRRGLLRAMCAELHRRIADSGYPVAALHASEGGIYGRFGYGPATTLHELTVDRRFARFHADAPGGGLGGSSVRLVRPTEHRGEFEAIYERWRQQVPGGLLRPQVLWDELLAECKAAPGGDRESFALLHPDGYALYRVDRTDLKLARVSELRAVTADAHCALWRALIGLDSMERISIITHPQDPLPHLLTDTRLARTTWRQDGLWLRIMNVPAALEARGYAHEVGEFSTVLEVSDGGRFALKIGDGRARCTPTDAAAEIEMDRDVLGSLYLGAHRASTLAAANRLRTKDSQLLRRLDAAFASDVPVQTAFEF

For `[H]/N=C(\N/C(=N/[H])NCCCCCCNC(=N)NC(=N)Nc1ccc(Cl)cc1)Nc1ccc(Cl)cc1` [Chlorhexidine (CHX), Chlorhexidine], the IC50 is listed as 670 ± 190 nM.
